Results from patent US20260027116A1, “Methods of Treating Chronic Graft-Versus-Host Disease Following Allogeneic Hematopoietic Stem Cell Transplantation” (Kadmon Corporation, LLC, priority 2022, published 2026).

Experiments:
lung function = experiment: Example 1: percent predicted FEV1 change from baseline; format: in vivo, human
Experimental: Change From Baseline in Percent Predicted Forced Expiratory Volume in 1 Second (FEV1) at Each Specified Time Points. FEV1 was the volume of air exhaled from the lungs in the first second of a forced expiration as measured by spirometer. Baseline value was defined as valid and last non-missing value obtained within 28 days prior to participant receiving first study medication. EOT visit was performed within 3 days after the participant's last dose of study drug. […] Analysis was performed on mITT population. Here, ‘number analyzed’=participants with available data for each specified category. Here, ‘O’ in the number analyzed field signifies that none of the participants were available for the analysis at the specified time points.

cGVHD = experiment: Example 2: corticosteroid and other immunosuppressant reduction; format: in vivo, human
Experimental: All responses were assessed by the study site investigators.

## CC(C)NC(=O)COc1cccc(-c2nc(Nc3ccc4[nH]ncc4c3)c3ccccc3n2)c1 [Belumosudil, 2-{3-[4-(1H-indazol-5-ylamino)-2-quinazolinyl]phenoxy}-N-(propan-2-yl) acetamide]
Lung function; Cohort 2: 200 mg BID, Cycle 25, Day 1
  Change From Baseline in Percent Predicted Forced Expiratory Volume in 1 Second (FEV1), Mean (Standard Deviation): −12.5 (3.5) percent predicted FEV1
Lung function; Cohort 2: 200 mg BID, Cycle 27, Day 1
  Change From Baseline in Percent Predicted Forced Expiratory Volume in 1 Second (FEV1), Mean (Standard Deviation): −17.0 (9.9) percent predicted FEV1
Lung function; Cohort 2: 200 mg BID, Cycle 29, Day 1
  Change From Baseline in Percent Predicted Forced Expiratory Volume in 1 Second (FEV1), Mean (Standard Deviation): 17.0 (11.3) percent predicted FEV1
Lung function; Cohort 2: 200 mg BID, Cycle 31, Day 1
  Change From Baseline in Percent Predicted Forced Expiratory Volume in 1 Second (FEV1), Mean (Standard Deviation): −19.5 (10.6) percent predicted FEV1
Lung function; Cohort 2: 200 mg BID, Cycle 33, Day 1
  Change From Baseline in Percent Predicted Forced Expiratory Volume in 1 Second (FEV1), Mean (Standard Deviation): −1.0 (33.9) percent predicted FEV1
Lung function; Cohort 2: 200 mg BID, Cycle 35, Day 1
  Change From Baseline in Percent Predicted Forced Expiratory Volume in 1 Second (FEV1), Mean (Standard Deviation): −2.5 (30.4) percent predicted FEV1
Lung function; Cohort 2: 200 mg BID, Cycle 37, Day 1
  Change From Baseline in Percent Predicted Forced Expiratory Volume in 1 Second (FEV1), Mean (Standard Deviation): −22.0 (—) percent predicted FEV1
Lung function; Cohort 2: 200 mg BID, Cycle 39, Day 1
  Change From Baseline in Percent Predicted Forced Expiratory Volume in 1 Second (FEV1), Mean (Standard Deviation): −23.0 (11.3) percent predicted FEV1
Lung function; Cohort 2: 200 mg BID, Cycle 43, Day 1
  Change From Baseline in Percent Predicted Forced Expiratory Volume in 1 Second (FEV1), Mean (Standard Deviation): −21.0 (—) percent predicted FEV1
Lung function; Cohort 2: 200 mg BID, EOT
  Change From Baseline in Percent Predicted Forced Expiratory Volume in 1 Second (FEV1), Mean (Standard Deviation): −10.1 (15.7) percent predicted FEV1
Lung function; Cohort 3: 400 mg QD, Cycle 2, Day 1
  Change From Baseline in Percent Predicted Forced Expiratory Volume in 1 Second (FEV1), Mean (Standard Deviation): −4.8 (6.7) percent predicted FEV1
Lung function; Cohort 3: 400 mg QD, Cycle 3, Day 1
  Change From Baseline in Percent Predicted Forced Expiratory Volume in 1 Second (FEV1), Mean (Standard Deviation): −1.5 (6.2) percent predicted FEV1
Lung function; Cohort 3: 400 mg QD, Cycle 4, Day 1
  Change From Baseline in Percent Predicted Forced Expiratory Volume in 1 Second (FEV1), Mean (Standard Deviation): −0.2 (8.4) percent predicted FEV1
Lung function; Cohort 3: 400 mg QD, Cycle 5, Day 1
  Change From Baseline in Percent Predicted Forced Expiratory Volume in 1 Second (FEV1), Mean (Standard Deviation): 0.5 (5.9) percent predicted FEV1
Lung function; Cohort 3: 400 mg QD, Cycle 6, Day 1
  Change From Baseline in Percent Predicted Forced Expiratory Volume in 1 Second (FEV1), Mean (Standard Deviation): −0.9 (6.4) percent predicted FEV1
Lung function; Cohort 3: 400 mg QD, Cycle 7, Day 1
  Change From Baseline in Percent Predicted Forced Expiratory Volume in 1 Second (FEV1), Mean (Standard Deviation): −0.9 (11.8) percent predicted FEV1
Lung function; Cohort 3: 400 mg QD, Cycle 8, Day 1
  Change From Baseline in Percent Predicted Forced Expiratory Volume in 1 Second (FEV1), Mean (Standard Deviation): −1.1 (8.0) percent predicted FEV1
Lung function; Cohort 3: 400 mg QD, Cycle 9, Day 1
  Change From Baseline in Percent Predicted Forced Expiratory Volume in 1 Second (FEV1), Mean (Standard Deviation): −3.0 (11.8) percent predicted FEV1
Lung function; Cohort 3: 400 mg QD, Cycle 10, Day 1
  Change From Baseline in Percent Predicted Forced Expiratory Volume in 1 Second (FEV1), Mean (Standard Deviation): 2.7 (3.9) percent predicted FEV1
Lung function; Cohort 3: 400 mg QD, Cycle 11, Day 1
  Change From Baseline in Percent Predicted Forced Expiratory Volume in 1 Second (FEV1), Mean (Standard Deviation): −4.4 (15.8) percent predicted FEV1
Lung function; Cohort 3: 400 mg QD, Cycle 12, Day 1
  Change From Baseline in Percent Predicted Forced Expiratory Volume in 1 Second (FEV1), Mean (Standard Deviation): 0.3 (3.6) percent predicted FEV1
Lung function; Cohort 3: 400 mg QD, Cycle 13, Day 1
  Change From Baseline in Percent Predicted Forced Expiratory Volume in 1 Second (FEV1), Mean (Standard Deviation): −3.5 (13.2) percent predicted FEV1
Lung function; Cohort 3: 400 mg QD, Cycle 14, Day 1
  Change From Baseline in Percent Predicted Forced Expiratory Volume in 1 Second (FEV1), Mean (Standard Deviation): −5.1 (9.1) percent predicted FEV1
Lung function; Cohort 3: 400 mg QD, Cycle 15, Day 1
  Change From Baseline in Percent Predicted Forced Expiratory Volume in 1 Second (FEV1), Mean (Standard Deviation): −6.1 (12.6) percent predicted FEV1
Lung function; Cohort 3: 400 mg QD, Cycle 16, Day 1
  Change From Baseline in Percent Predicted Forced Expiratory Volume in 1 Second (FEV1), Mean (Standard Deviation): −4.5 (7.3) percent predicted FEV1
Lung function; Cohort 3: 400 mg QD, Cycle 17, Day 1
  Change From Baseline in Percent Predicted Forced Expiratory Volume in 1 Second (FEV1), Mean (Standard Deviation): −7.9 (15.5) percent predicted FEV1
Lung function; Cohort 3: 400 mg QD, Cycle 18, Day 1
  Change From Baseline in Percent Predicted Forced Expiratory Volume in 1 Second (FEV1), Mean (Standard Deviation): 4.0 (6.0) percent predicted FEV1
Lung function; Cohort 3: 400 mg QD, Cycle 19, Day 1
  Change From Baseline in Percent Predicted Forced Expiratory Volume in 1 Second (FEV1), Mean (Standard Deviation): 0.5 (8.5) percent predicted FEV1
Lung function; Cohort 3: 400 mg QD, Cycle 25, Day 1
  Change From Baseline in Percent Predicted Forced Expiratory Volume in 1 Second (FEV1), Mean (Standard Deviation): −5.0 (11.4) percent predicted FEV1
Lung function; Cohort 3: 400 mg QD, Cycle 27, Day 1
  Change From Baseline in Percent Predicted Forced Expiratory Volume in 1 Second (FEV1), Mean (Standard Deviation): −10.0 (17.0) percent predicted FEV1
Lung function; Cohort 3: 400 mg QD, Cycle 29, Day 1
  Change From Baseline in Percent Predicted Forced Expiratory Volume in 1 Second (FEV1), Mean (Standard Deviation): 0.0 (1.4) percent predicted FEV1
Lung function; Cohort 3: 400 mg QD, Cycle 31, Day 1
  Change From Baseline in Percent Predicted Forced Expiratory Volume in 1 Second (FEV1), Mean (Standard Deviation): −4.0 (—) percent predicted FEV1
Lung function; Cohort 3: 400 mg QD, Cycle 35, Day 1
  Change From Baseline in Percent Predicted Forced Expiratory Volume in 1 Second (FEV1), Mean (Standard Deviation): −4.0 (—) percent predicted FEV1
Lung function; Cohort 3: 400 mg QD, Cycle 36, Day 1
  Change From Baseline in Percent Predicted Forced Expiratory Volume in 1 Second (FEV1), Mean (Standard Deviation): 5.0 (—) percent predicted FEV1
Lung function; Cohort 3: 400 mg QD, Cycle 39, Day 1
  Change From Baseline in Percent Predicted Forced Expiratory Volume in 1 Second (FEV1), Mean (Standard Deviation): −5.0 (—) percent predicted FEV1
Lung function; Cohort 3: 400 mg QD, Cycle 43, Day 1
  Change From Baseline in Percent Predicted Forced Expiratory Volume in 1 Second (FEV1), Mean (Standard Deviation): −7.0 (—) percent predicted FEV1
Lung function; Cohort 3: 400 mg QD, Cycle 47, Day 1
  Change From Baseline in Percent Predicted Forced Expiratory Volume in 1 Second (FEV1), Mean (Standard Deviation): −5.0 (—) percent predicted FEV1
Lung function; Cohort 3: 400 mg QD, Cycle 49, Day 1
  Change From Baseline in Percent Predicted Forced Expiratory Volume in 1 Second (FEV1), Mean (Standard Deviation): −2.0 (—) percent predicted FEV1
Lung function; Cohort 3: 400 mg QD, EOT
  Change From Baseline in Percent Predicted Forced Expiratory Volume in 1 Second (FEV1), Mean (Standard Deviation): −7.4 (14.9) percent predicted FEV1
cGVHD; 200 mg daily
  Mean change in CS dose from baseline, Nonresponder: −22%
  Mean change in CS dose from baseline, Overall: −43%
  Mean change in CS dose from baseline, Responder: −49%
cGVHD; 200 mg daily (n = 66)
  CS discontinuation: 13 (20) n (%)
  Median CS reduction from baseline to greatest reduction: 38%
  Proportion with CS reduction: 42 (64) n (%)
cGVHD; 200 mg twice daily
  Mean change in CS dose from baseline, Nonresponder: −10%
  Mean change in CS dose from baseline, Overall: −48%
  Mean change in CS dose from baseline, Responder: −58%
cGVHD; 200 mg twice daily (n = 66)
  CS discontinuation: 15 (23) n (%)
  Median CS reduction from baseline to greatest reduction: 50%
  Proportion with CS reduction: 44 (67) n (%)
cGVHD; Example 2
  subjects who discontinued calcineurin inhibitor (CNI) therapy: 22%
  subjects who discontinued mycophenolate mofetil: 21%
  subjects who discontinued sirolimus: 20%
  subjects who reduced corticosteroid dose: 65%
cGVHD; Example 2, mITT
  mean corticosteroid dose reduction: 45%
cGVHD; Example 2, responders
  mean corticosteroid dose reduction: 54%
cGVHD; Total
  Mean change in CS dose from baseline, Nonresponder: −16%
  Mean change in CS dose from baseline, Overall: −45%
  Mean change in CS dose from baseline, Responder: −54%
cGVHD; Total (N = 132)
  Median CS reduction from baseline to greatest reduction: 50%
  Proportion with CS reduction: 86 (65) n (%)
